Activity calls are given as the source filed them. The rule behind the calls is not given here. Where a SMILES comes first, the peptide text is derived from it. Bridges are numbered along the chain shown (N, C = ends).
Tests used:
[1] = Drug uptake in human MCF7 cells assessed as cell area stained at 10 uM after 3 hrs by Hoechst 33342 staining based confocal microscopic analysis; assay type: ADME; conditions: mcf7, 3 h
[2] = molecular target: T1, Lysine-specific demethylase 4C (Homo sapiens, UniProt Q9H3R0); test: Inhibition of KDM4C (unknown origin) expressed in Escherichia coli using biotinylated peptide as substrate pretreated for 15 mins followed by substrate addition by Alphascreen assay
T1 sequence (Q9H3R0 whole entry): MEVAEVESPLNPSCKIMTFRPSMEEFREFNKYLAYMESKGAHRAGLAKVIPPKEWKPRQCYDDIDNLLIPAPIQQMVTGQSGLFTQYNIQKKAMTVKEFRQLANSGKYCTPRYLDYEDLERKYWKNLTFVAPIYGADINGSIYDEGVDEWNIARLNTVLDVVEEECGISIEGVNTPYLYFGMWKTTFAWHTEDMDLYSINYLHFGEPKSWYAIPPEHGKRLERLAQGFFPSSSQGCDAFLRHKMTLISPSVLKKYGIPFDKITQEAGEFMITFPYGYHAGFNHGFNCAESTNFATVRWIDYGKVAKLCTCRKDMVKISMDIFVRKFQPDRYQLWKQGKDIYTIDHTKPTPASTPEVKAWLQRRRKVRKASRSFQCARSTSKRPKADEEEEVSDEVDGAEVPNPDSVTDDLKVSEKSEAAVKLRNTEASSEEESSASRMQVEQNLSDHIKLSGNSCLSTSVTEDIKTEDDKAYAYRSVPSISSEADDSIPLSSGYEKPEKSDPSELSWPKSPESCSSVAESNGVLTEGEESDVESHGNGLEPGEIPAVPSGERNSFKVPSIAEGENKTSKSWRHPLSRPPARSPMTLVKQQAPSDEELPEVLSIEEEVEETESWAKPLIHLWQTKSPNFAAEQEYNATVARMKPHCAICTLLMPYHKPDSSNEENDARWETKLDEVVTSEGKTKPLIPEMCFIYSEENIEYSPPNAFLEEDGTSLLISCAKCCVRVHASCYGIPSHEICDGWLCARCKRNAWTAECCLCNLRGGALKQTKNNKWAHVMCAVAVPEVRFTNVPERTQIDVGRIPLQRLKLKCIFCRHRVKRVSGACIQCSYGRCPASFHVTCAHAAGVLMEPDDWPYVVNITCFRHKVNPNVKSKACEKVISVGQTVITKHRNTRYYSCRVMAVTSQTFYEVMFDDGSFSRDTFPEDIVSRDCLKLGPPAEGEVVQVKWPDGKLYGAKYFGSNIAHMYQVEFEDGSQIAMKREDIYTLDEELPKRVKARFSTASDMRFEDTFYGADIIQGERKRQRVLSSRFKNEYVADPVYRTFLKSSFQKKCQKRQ

[3] = molecular target: T2, Lysine-specific demethylase 4A (Homo sapiens, UniProt O75164); test: Inhibition of KDM4A (unknown origin) expressed in Escherichia coli using biotinylated peptide as substrate pretreated for 15 mins followed by substrate addition by Alphascreen assay
T2 sequence (O75164 whole entry): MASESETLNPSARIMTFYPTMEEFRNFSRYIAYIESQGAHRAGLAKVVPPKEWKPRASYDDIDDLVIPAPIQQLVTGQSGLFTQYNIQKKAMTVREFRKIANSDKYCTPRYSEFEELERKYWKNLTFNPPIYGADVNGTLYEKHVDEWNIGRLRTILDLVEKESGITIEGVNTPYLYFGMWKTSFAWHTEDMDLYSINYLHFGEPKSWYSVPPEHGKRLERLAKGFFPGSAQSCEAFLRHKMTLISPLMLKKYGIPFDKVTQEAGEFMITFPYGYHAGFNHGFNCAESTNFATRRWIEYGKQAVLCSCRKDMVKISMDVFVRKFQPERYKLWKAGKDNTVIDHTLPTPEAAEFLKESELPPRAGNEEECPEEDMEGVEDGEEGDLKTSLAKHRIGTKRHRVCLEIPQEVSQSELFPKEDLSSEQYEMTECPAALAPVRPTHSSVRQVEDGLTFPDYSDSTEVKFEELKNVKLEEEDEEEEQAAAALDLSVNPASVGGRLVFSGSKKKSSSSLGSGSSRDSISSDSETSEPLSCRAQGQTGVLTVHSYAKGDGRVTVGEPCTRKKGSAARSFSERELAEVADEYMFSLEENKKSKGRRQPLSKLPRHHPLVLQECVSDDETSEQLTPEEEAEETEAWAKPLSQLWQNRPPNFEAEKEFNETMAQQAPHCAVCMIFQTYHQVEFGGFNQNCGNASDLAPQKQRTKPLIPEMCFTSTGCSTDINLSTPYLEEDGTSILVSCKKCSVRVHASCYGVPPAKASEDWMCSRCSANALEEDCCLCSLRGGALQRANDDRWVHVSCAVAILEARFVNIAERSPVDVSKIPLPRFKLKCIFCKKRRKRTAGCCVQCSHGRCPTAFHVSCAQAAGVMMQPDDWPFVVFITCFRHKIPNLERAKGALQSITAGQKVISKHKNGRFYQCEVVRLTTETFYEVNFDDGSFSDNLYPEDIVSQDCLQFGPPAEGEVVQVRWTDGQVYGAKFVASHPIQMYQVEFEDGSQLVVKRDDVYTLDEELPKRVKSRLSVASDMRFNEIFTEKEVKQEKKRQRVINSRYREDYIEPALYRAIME

[4] = molecular target: T2, Lysine-specific demethylase 4A; test: Stabilization of FLAG-tagged KDM4A (1 to 1064 residues) (unknown origin) expressed in human U2OS cells measured after 3 hrs by CETSA; assay type: cell-based
[5] = molecular target: T2, Lysine-specific demethylase 4A; test: Binding affinity to N-terminal His6-tagged KDM4A (1 to 359 residues) (unknown origin) expressed in Escherichia coli BL21(DE3) Rosetta by bio-layer interferometric method; conditions: read-out: Kd(app)
[6] = molecular target: T2, Lysine-specific demethylase 4A; test: Inhibition of full length FLAG-tagged KDM4A (unknown origin) expressed in human HeLa cells assessed as increase in H3K9me3 levels after 24 hrs by DAPI staining based immunofluorescence assay; assay type: cell-based
HeLa [7] = test: Cytotoxicity against human HeLa cells expressing FLAG-tagged KDM4A assessed as condensed nucleus at 50 uM after 24 hrs by DAPI staining based immunofluorescence assay; assay type: cell-based
HeLa [8] = test: Cytotoxicity against human HeLa cells expressing FLAG-tagged KDM4A assessed as reduction in cell numbers at >5 uM after 24 hrs by DAPI staining based immunofluorescence assay
[9] = molecular target: T2, Lysine-specific demethylase 4A; test: (§1) Binding affinity to biotinylated-KDM4A (unknown origin) at 300 nM by bio-layer interferometric method; conditions: read-out: Kd(app)
[10] = molecular target: T3, Lysine-specific demethylase 4A (Homo sapiens) (UniProt O75164); test: as §1
T3 sequence (whole entry): T2 sequence (O75164 whole entry)

[11] = molecular target: T3, Lysine-specific demethylase 4A (Homo sapiens); test: Inhibition of full length FLAG-tagged KDM4A (unknown origin) expressed in human HeLa cells assessed as increase in H3K9me3 levels at >20 uM after 24 hrs by DAPI staining based immunofluorescence assay; assay type: cell-based
[12] = Drug localization in lysosomes of human MCF7 cells at 10 uM after 3 hrs by Lysotracker red DND-99 staining based confocal microscopic analysis; assay type: ADME, subcellular, Lysosome; conditions: mcf7, 3 h

SMILES | Drug uptake [1] [%] | IC50 [2] [nM] | IC50 [3] [nM] | EC50 [4] [nM] | Kd [5] [nM] | EC50 [6] [nM] | Activity (HeLa [7]) | Activity (HeLa [8]) | Kd [9] [nM] | Kd(app) [10] | inhibition [11] | Drug uptake [12]
CC(C)[C@@H]1NC(=O)[C@@H](Cc2ccc(O)cc2)NC(=O)CSC[C@@H](C(N)=O)NC(=O)[C@H](Cc2c[nH]c3ccccc23)NC(=O)[C@H](Cc2ccc(O)cc2)NC(=O)[C@H](Cc2c[nH]c3ccccc23)NC(=O)[C@H](CCCNC(=N)N)NC(=O)[C@H](Cc2c[nH]c3ccccc23)NC(=O)CNC(=O)[C@H](CO)NC(=O)[C@H](CCCNC(=N)N)NC(=O)[C@H]([C@@H](C)O)NC(=O)[C@H](CC(N)=O)NC(=O)[C@H](Cc2ccc(O)cc2)NC1=O | 17.4 | 46 | 41 | > 100000 | 29.8 | – | – | – | – | – | – | –
CC[C@H](C)[C@@H]1NC(=O)CNC(=O)[C@H](CO)NC(=O)[C@H](CCCNC(=N)N)NC(=O)[C@H](CCCNC(=N)N)NC(=O)[C@H](Cc2ccccc2)NC(=O)[C@H](CCCNC(=N)N)NC(=O)[C@H]([C@@H](C)O)NC(=O)[C@@H](Cc2ccc(O)cc2)NC(=O)CSC[C@@H](C(N)=O)NC(=O)[C@H](Cc2ccc(O)cc2)NC(=O)[C@H](Cc2ccc(O)cc2)NC(=O)[C@H](Cc2ccccc2)NC(=O)[C@H](C(C)C)NC1=O | 13.4 | – | – | – | – | > 50000 | Toxic | Toxic | 2.6 | – | – | –
CC[C@H](C)[C@@H]1NC(=O)[C@H](CCCNC(=N)N)NC(=O)[C@@H]2CCCN2C(=O)[C@H](Cc2ccc(O)cc2)NC(=O)CSC[C@@H](C(N)=O)N(C)C(=O)[C@H](Cc2c[nH]c3ccccc23)NC(=O)[C@H](CCCNC(=N)N)NC(=O)[C@H]([C@@H](C)CC)NC(=O)[C@@H](C)NC(=O)[C@H](CO)NC(=O)[C@H](CCCNC(=N)N)NC(=O)[C@H](CCCNC(=N)N)NC1=O | 1.2 | 65 | 269 | – | – | > 50000 | – | – | – | inactive | – | –
CC[C@H](C)[C@@H]1NC(=O)[C@H](CCCNC(=N)N)NC(=O)[C@H]([C@@H](C)CC)N(C)C(=O)[C@H](Cc2ccc(O)cc2)NC(=O)CSC[C@@H](C(N)=O)N(C)C(=O)[C@H](Cc2c[nH]c3ccccc23)NC(=O)[C@H](CC(C)C)NC(=O)[C@H](Cc2c[nH]c3ccccc23)NC(=O)[C@@H](C)NC(=O)[C@H](CO)NC(=O)[C@H](CCCNC(=N)N)NC(=O)[C@H](CCCNC(=N)N)NC1=O | 7.4 | 27 | 17 | – | – | > 50000 | – | – | 23 | – | Active | –
CC[C@H](C)[C@@H]1NC(=O)CNC(=O)[C@H](CO)NC(=O)[C@H](CCCNC(=N)N)NC(=O)[C@H](CCCNC(=N)N)NC(=O)[C@H](Cc2ccccc2)NC(=O)[C@H](CCCNC(=N)N)NC(=O)[C@H]([C@H](C)O)NC(=O)[C@@H](Cc2ccc(O)cc2)NC(=O)CSC[C@@H](C(N)=O)NC(=O)[C@H](Cc2ccc(O)cc2)NC(=O)[C@H](Cc2ccc(O)cc2)NC(=O)[C@H](Cc2ccccc2)NC(=O)[C@H](C(C)C)NC1=O | – | – | – | – | – | – | – | – | – | – | Active | –
CC[C@H](C)[C@@H]1NC(=O)[C@H](CCCNC(=N)N)NC(=O)[C@H]([C@@H](C)CC)NC(=O)[C@H](Cc2ccc(O)cc2)NC(=O)CSC[C@@H](C(N)=O)NC(=O)[C@H](Cc2c[nH]c3ccccc23)NC(=O)[C@H](CC(C)C)NC(=O)[C@H](Cc2c[nH]c3ccccc23)NC(=O)CNC(=O)[C@H](CO)NC(=O)[C@H](CCCNC(=N)N)NC(=O)[C@H](CCCNC(=N)N)NC1=O ({CH2CO}-YIRIRRSGWLWC-NH2; thioether N-12) | 65.3 | 23 | 23 | – | – | > 50000 | – | – | 42 | – | – | Active
CC[C@H](C)[C@@H]1NC(=O)CNC(=O)[C@H](CO)NC(=O)[C@H](CCCNC(=N)N)NC(=O)[C@H](CCCNC(=N)N)NC(=O)[C@H]([C@@H](C)CC)NC(=O)[C@H](CCCNC(=N)N)NC(=O)[C@@H]2CCCN2C(=O)[C@H](Cc2ccc(O)cc2)NC(=O)CSC[C@@H](C(N)=O)NC(=O)[C@H](Cc2c[nH]c3ccccc23)NC(=O)[C@H](CCCNC(=N)N)NC1=O ({CH2CO}-YPRIRRSGIRWC-NH2; thioether N-12) | 76.8 | 466 | 615 | – | – | > 50000 | – | – | > 300 | – | – | Active
